Our source for the relative viability values is the supplement of paper PMC10307832.

Holding throughout (experiment): relative viability (nuclei count vs DMSO), 5 days (fraction); higher = more cells survive
Compound in the assay “Bexarotene + OSI-027”: C=C(c1ccc(C(=O)O)cc1)c1cc2c(cc1C)C(C)(C)CCC2(C)C [Bexarotene] + COc1cccc2cc(-c3nc([C@H]4CC[C@H](C(=O)O)CC4)n4ncnc(N)c34)[nH]c12 [OSI-027] (partner 0.5 µM)
The method in brief:
(§1)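 After 5 days of treatment, lung cancer cells in 1536-well plates were fixed and stained in a single step (final 0.05% Triton X-100, 1% formaldehyde, 1 ug/ml Hoechst) and their nuclei counted on 4× images. Treatment had been applied by pin tool the day after seeding as one drug alone or as a fixed anchor-drug dose with five library-drug doses (not always all listed) in √10 steps. Relative viability is the nuclei count of treated wells divided by that of vehicle wells, and values are medians of duplicate plates.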

Compound in the assay “Bexarotene + Trametinib”: C=C(c1ccc(C(=O)O)cc1)c1cc2c(cc1C)C(C)(C)CCC2(C)C [Bexarotene] + CC(=O)Nc1cccc(-n2c(=O)n(C3CC3)c(=O)c3c(Nc4ccc(I)cc4F)n(C)c(=O)c(C)c32)c1 [Trametinib] (partner 0.02 µM)
The method in brief: as §1

Compound in the assay “Bexarotene + Linsitinib”: C=C(c1ccc(C(=O)O)cc1)c1cc2c(cc1C)C(C)(C)CCC2(C)C [Bexarotene] + C[C@]1(O)C[C@@H](c2nc(-c3ccc4ccc(-c5ccccc5)nc4c3)c3c(N)nccn32)C1 [Linsitinib] (partner 1 µM)
The method in brief:
as §1

Compound in the assay “Bexarotene + Lapatinib”: C=C(c1ccc(C(=O)O)cc1)c1cc2c(cc1C)C(C)(C)CCC2(C)C [Bexarotene] + CS(=O)(=O)CCNCc1ccc(-c2ccc3ncnc(Nc4ccc(OCc5cccc(F)c5)c(Cl)c4)c3c2)o1 [Lapatinib] (partner 2 µM)
The procedure, abridged:
as §1

In the case of PC-3 [JPC-3], the relative viability in the assay with Bexarotene + OSI-027 (first compound 0.08 µM) amounted to 0.816; in the assay with Bexarotene + OSI-027 (first compound 0.253 µM), 0.798; in the assay with Bexarotene + OSI-027 (first compound 0.8 µM) it was 0.604; with Bexarotene + OSI-027 (first compound 2.53 µM), 0.733; with Bexarotene + OSI-027 (first compound 8 µM), 0.676; in the assay with Bexarotene + Trametinib (first compound 0.08 µM) it was 0.708. Besides, the relative viability in the assay with Bexarotene + Trametinib (first compound 0.253 µM) is 0.719; with Bexarotene + Trametinib (first compound 0.8 µM), 0.595; with Bexarotene + Trametinib (first compound 2.53 µM), 0.654; with Bexarotene + Trametinib (first compound 8 µM), 0.678; with Bexarotene + Linsitinib (first compound 0.08 µM), 0.98; with Bexarotene + Linsitinib (first compound 0.253 µM) it was 1.03. For the same cell line, the relative viability in the assay with Bexarotene + Linsitinib (first compound 0.8 µM) came to 0.829; with Bexarotene + Linsitinib (first compound 2.53 µM), 0.882; with Bexarotene + Linsitinib (first compound 8 µM) it was 0.827; with Bexarotene + Lapatinib (first compound 0.08 µM), 0.519; with Bexarotene + Lapatinib (first compound 0.253 µM) it was 0.48; with Bexarotene + Lapatinib (first compound 0.8 µM), 0.427. For the same cell line, the relative viability came out at 0.466 with Bexarotene + Lapatinib (first compound 2.53 µM) and 0.446 in the assay with Bexarotene + Lapatinib (first compound 8 µM).
With PC-14, the relative viability with Bexarotene + OSI-027 (first compound 0.08 µM) was determined as 0.88; with Bexarotene + OSI-027 (first compound 0.253 µM), 0.938; in the assay with Bexarotene + OSI-027 (first compound 0.8 µM), 0.743; with Bexarotene + OSI-027 (first compound 2.53 µM), 0.836; with Bexarotene + OSI-027 (first compound 8 µM), 0.647; with Bexarotene + Trametinib (first compound 0.08 µM), 0.708. Moreover, the relative viability came out at 0.901 with Bexarotene + Trametinib (first compound 0.253 µM); 0.961 with Bexarotene + Trametinib (first compound 0.8 µM); 0.818 in the assay with Bexarotene + Trametinib (first compound 2.53 µM); 0.821 with Bexarotene + Trametinib (first compound 8 µM); 0.99 with Bexarotene + Linsitinib (first compound 0.08 µM); 1.06 with Bexarotene + Linsitinib (first compound 0.253 µM). Moreover, the relative viability was determined as 0.935 in the assay with Bexarotene + Linsitinib (first compound 0.8 µM); 1 with Bexarotene + Linsitinib (first compound 2.53 µM); 0.934 in the assay with Bexarotene + Linsitinib (first compound 8 µM); 0.347 with Bexarotene + Lapatinib (first compound 0.08 µM); 0.401 in the assay with Bexarotene + Lapatinib (first compound 0.253 µM); 0.365 with Bexarotene + Lapatinib (first compound 0.8 µM). Further, the relative viability in the assay with Bexarotene + Lapatinib (first compound 2.53 µM) was determined as 0.327; with Bexarotene + Lapatinib (first compound 8 µM), 0.337.
Take RERF-LC-KJ: the relative viability with Bexarotene + OSI-027 (first compound 0.08 µM) was found to be 0.522; with Bexarotene + OSI-027 (first compound 0.253 µM) it was 0.572; with Bexarotene + OSI-027 (first compound 0.8 µM), 0.539; with Bexarotene + OSI-027 (first compound 2.53 µM) it was 0.562; with Bexarotene + OSI-027 (first compound 8 µM) it was 0.506; in the assay with Bexarotene + Trametinib (first compound 0.08 µM) it was 0.879. The relative viability with Bexarotene + Trametinib (first compound 0.253 µM) was 0.85; with Bexarotene + Trametinib (first compound 0.8 µM) it was 0.814; with Bexarotene + Trametinib (first compound 2.53 µM), 0.873; with Bexarotene + Trametinib (first compound 8 µM), 0.799; with Bexarotene + Linsitinib (first compound 0.08 µM) it was 0.8; with Bexarotene + Linsitinib (first compound 0.253 µM) it was 0.827. Further, the relative viability with Bexarotene + Linsitinib (first compound 0.8 µM) is 0.755; with Bexarotene + Linsitinib (first compound 2.53 µM), 0.782; with Bexarotene + Linsitinib (first compound 8 µM), 0.83; with Bexarotene + Lapatinib (first compound 0.08 µM), 0.798; with Bexarotene + Lapatinib (first compound 0.253 µM) it was 0.799; in the assay with Bexarotene + Lapatinib (first compound 0.8 µM) it was 0.702. The relative viability in the assay with Bexarotene + Lapatinib (first compound 2.53 µM) is 0.767; in the assay with Bexarotene + Lapatinib (first compound 8 µM), 0.757.
For SK-LU-1, the relative viability was determined as 0.41 in the assay with Bexarotene + OSI-027 (first compound 0.08 µM); 0.395 with Bexarotene + OSI-027 (first compound 0.253 µM); 0.352 with Bexarotene + OSI-027 (first compound 2.53 µM); 0.351 in the assay with Bexarotene + OSI-027 (first compound 8 µM); 0.548 with Bexarotene + Trametinib (first compound 0.08 µM); 0.587 with Bexarotene + Trametinib (first compound 0.253 µM). Moreover, the relative viability with Bexarotene + Trametinib (first compound 2.53 µM) was 0.579; with Bexarotene + Trametinib (first compound 8 µM) it was 0.517; in the assay with Bexarotene + Linsitinib (first compound 0.08 µM), 1.22; with Bexarotene + Linsitinib (first compound 0.253 µM), 1.12; in the assay with Bexarotene + Linsitinib (first compound 2.53 µM), 0.93; with Bexarotene + Linsitinib (first compound 8 µM), 1.23. Moreover, the relative viability amounted to 0.938 with Bexarotene + Lapatinib (first compound 0.08 µM), 0.955 in the assay with Bexarotene + Lapatinib (first compound 0.253 µM), 1 with Bexarotene + Lapatinib (first compound 2.53 µM) and 0.692 in the assay with Bexarotene + Lapatinib (first compound 8 µM).
As to SK-MES-1, the relative viability in the assay with Bexarotene + OSI-027 (first compound 0.08 µM) amounted to 0.638; in the assay with Bexarotene + OSI-027 (first compound 0.253 µM), 0.708; with Bexarotene + OSI-027 (first compound 0.8 µM), 0.563; with Bexarotene + OSI-027 (first compound 2.53 µM), 0.603; with Bexarotene + OSI-027 (first compound 8 µM), 0.525; with Bexarotene + Trametinib (first compound 0.08 µM) it was 0.701. Moreover, the relative viability was 0.747 in the assay with Bexarotene + Trametinib (first compound 0.253 µM); 0.656 in the assay with Bexarotene + Trametinib (first compound 0.8 µM); 0.672 with Bexarotene + Trametinib (first compound 2.53 µM); 0.65 with Bexarotene + Trametinib (first compound 8 µM); 1.15 with Bexarotene + Linsitinib (first compound 0.08 µM); 1.18 in the assay with Bexarotene + Linsitinib (first compound 0.253 µM). Further, the relative viability with Bexarotene + Linsitinib (first compound 0.8 µM) came out at 0.983; with Bexarotene + Linsitinib (first compound 2.53 µM), 1.05; with Bexarotene + Linsitinib (first compound 8 µM), 0.97; with Bexarotene + Lapatinib (first compound 0.08 µM) it was 0.512; in the assay with Bexarotene + Lapatinib (first compound 0.253 µM), 0.45; with Bexarotene + Lapatinib (first compound 0.8 µM) it was 0.565. For the same cell line, the results for the relative viability with Bexarotene + Lapatinib (first compound 2.53 µM) and with Bexarotene + Lapatinib (first compound 8 µM) were 0.558 and 0.509, respectively.
For the cell line SW 1573, the relative viability with Bexarotene + OSI-027 (first compound 0.08 µM) was 0.696; with Bexarotene + OSI-027 (first compound 0.253 µM) it was 0.58; in the assay with Bexarotene + OSI-027 (first compound 0.8 µM), 0.564; with Bexarotene + OSI-027 (first compound 2.53 µM) it was 0.469; with Bexarotene + OSI-027 (first compound 8 µM) it was 0.471; with Bexarotene + Trametinib (first compound 0.08 µM), 0.546. Also, the relative viability is 0.507 with Bexarotene + Trametinib (first compound 0.253 µM); 0.538 with Bexarotene + Trametinib (first compound 0.8 µM); 0.502 in the assay with Bexarotene + Trametinib (first compound 2.53 µM); 0.456 with Bexarotene + Trametinib (first compound 8 µM); 0.777 in the assay with Bexarotene + Linsitinib (first compound 0.08 µM); 0.608 with Bexarotene + Linsitinib (first compound 0.253 µM). For the same cell line, the relative viability came to 0.681 with Bexarotene + Linsitinib (first compound 0.8 µM); 0.754 with Bexarotene + Linsitinib (first compound 2.53 µM); 0.536 in the assay with Bexarotene + Linsitinib (first compound 8 µM); 1.09 with Bexarotene + Lapatinib (first compound 0.08 µM); 1 with Bexarotene + Lapatinib (first compound 0.253 µM); 1.1 with Bexarotene + Lapatinib (first compound 0.8 µM). The relative viability amounted to 0.919 in the assay with Bexarotene + Lapatinib (first compound 2.53 µM) and 0.916 in the assay with Bexarotene + Lapatinib (first compound 8 µM).
Regarding UMC-11, the relative viability with Bexarotene + OSI-027 (first compound 0.08 µM) was determined as 0.468; with Bexarotene + OSI-027 (first compound 0.253 µM), 0.515; in the assay with Bexarotene + OSI-027 (first compound 0.8 µM) it was 0.419; with Bexarotene + OSI-027 (first compound 2.53 µM), 0.436; with Bexarotene + OSI-027 (first compound 8 µM), 0.432; with Bexarotene + Trametinib (first compound 0.08 µM), 0.638. Further, the relative viability worked out at 0.668 with Bexarotene + Trametinib (first compound 0.253 µM); 0.623 with Bexarotene + Trametinib (first compound 0.8 µM); 0.634 with Bexarotene + Trametinib (first compound 2.53 µM); 0.658 in the assay with Bexarotene + Trametinib (first compound 8 µM); 1.08 with Bexarotene + Linsitinib (first compound 0.08 µM); 1.01 with Bexarotene + Linsitinib (first compound 0.253 µM). Moreover, the relative viability in the assay with Bexarotene + Linsitinib (first compound 0.8 µM) came to 1.04; with Bexarotene + Linsitinib (first compound 2.53 µM), 0.978; in the assay with Bexarotene + Linsitinib (first compound 8 µM), 0.998; with Bexarotene + Lapatinib (first compound 0.08 µM) it was 0.943; with Bexarotene + Lapatinib (first compound 0.253 µM), 0.907; with Bexarotene + Lapatinib (first compound 0.8 µM) it was 0.894. For the same cell line, the relative viability with Bexarotene + Lapatinib (first compound 2.53 µM) turned out to be 0.803; with Bexarotene + Lapatinib (first compound 8 µM) it was 0.916.
